Source: patent US7524851B2 (Robert Bosch Gesellschaft fur Medizinische Forschung (RBMF), priority 2003, dated 2009)

Assays:
[1] = tested on: lamina propria lymphocytes; experiment: Apoptosis of anti-CD2/CD28 activated lamina propria lymphocytes in vitro; type: cell-based, human; details: ulcerative colitis; 5 days
Description: Isolation of primary CD4^+ T lymphocytes and lamina propria cells: Human peripheral blood mononuclear cells (PBMCs) from healthy volunteers (25-42 years of age) and patients with Crohn's disease (31-65 years of age) were isolated using Ficoll-Hypaque gradients. PBMCs were further purified using CD4 monoclonal antibodies attached to immunomagnetic beads according to the manufacturer's protocol, followed by treatment with Detachabead (Dynal; Oslo, Norway). In some cases, CD4^+ T cells were further separated by negative selection techniques using CD45RO or CD45RA monoclonal antibodies (PharMingen; Heidelberg, Germany) and immunomagnetic beads (Dynal). […]
For FACS analysis, apoptotic cells were detected by staining with annexin V and propidium iodide using the Annexin V FITC Apoptosis Detection Kit I (PharMingen) (Atreya et al., Nat. Med. 6:583-588 (2000)). […] To verify the results obtained with the annexin V/propidium iodide staining, analysis of T cells displaying DNA fragmentation was also determined by the Nicoletti technique, as described in (Nicoletti et al., J. Immunol. Methods 139:271-279 (1991)). […] Finally, cells were analyzed on a FACScan flow cytometer. […]

NF-κB p50/p65 = experiment: NF-κB electrophoretic mobility shift assay; type: cell-based, human; details: EMSA
Method: Isolation of nuclear proteins: T lymphocytes were washed twice in cold PBS and resuspended in 500 μl of buffer A (10 mM HEPES, 1.5 mM MgCl2, 19 mM KCl, 0.5 mM PMSF, 1 mM DTT) followed by addition of 20 μl of Triton X-100 (Sigma-Aldrich) and incubation on ice for 5 minutes. Cells were centrifuged for 10 minutes at 4° C., followed by the resuspension of the nuclear pellet in buffer C (20 mM HEPES, 1.5 mM MgCl2, 0.2 mM EDTA, 25% glycerol, 0.5 mM PMSF, 1 mM DTT). Finally, the nuclei were homogenized using mini stir bars for 1 hour at 4° C. followed by centrifugation at 15,000 rpm for 15 minutes at 4° C. The concentration of nuclear proteins in supernatants was assessed using the Bio-Rad Protein Assay.
Electrophoretic mobility shift assays: Electrophoretic mobility shift assays (EMSAs) were performed as described in Atreya et al., supra. Oligonucleotides for EMSA were obtained from Santa Cruz Biotech (Heidelberg, Germany). The sequences were as follows: NF-κB, 5′-[sequence]-3′ (SEQ ID NO: 1) and 3′-[sequence]-5′ (SEQ ID NO: 2); and SP-1,5′-[sequence]-3′ (SEQ ID NO: 3) and 3′-[sequence]-5′ (SEQ ID NO: 4). Oligonucleotides were end labeled with [^32P]γ-ATP (>5000 Ci/mmol; Amersham; Arlington Heights, Ill., USA) using T4 polynucleotide kinase (New England Biolabs; Beverly, Mass., USA). […]

IκB = IκB phosphorylation and expression (Western blot); type: cell-based, human; details: 3 days
Method: The cells were then washed in PBS, resuspended in 1 ml of T40E10N150 buffer (40 mM Tris-HCl [pH 7.9], 10 mM EDTA [pH 8.0], 150 mM NaCl), put on ice for 5 minutes, and centrifuged for 4 minutes at 4° C. at 1,000 rpm. The cell pellet was then resuspended on ice in 70 μl of buffer (10 mM HEPES [pH 8.0], 400 mM NaCl, 0.1 mM EDTA, 5% glycerol, 1 mM DTT, 1 mM PMSF) and centrifuged at 15,000 rpm for 30 minutes at 4° C. The protein concentrations in supernatants were determined with the Bio-Rad Protein Assay (Bio-Rad; Munich, Germany).
Western blots: Equal amounts of extract (30 μg) were added to 8 μl of electrophoresis sample buffer (Firma Roth; Karlsruhe, Germany). After boiling, the extracts were loaded on 15% SDS-PAGE gels and electrophoretically separated. Proteins were transferred to nitrocellulose membranes, and detection was performed with the ECL Western blotting analysis system (Amersham). […]

[2] = all 47 CD patients
Method: Blood Sampling: Blood samples from patients were collected into EDTA tubes and the packed red blood cells (RBCs) were isolated by centrifugation within 6 hours after blood drawing. The RBCs were immediately frozen at −80° C. until analysis.
6-thioguanine nucleotides (6-TGN) and the methylated metabolites S-methyl-mercaptopurine ribonucleotides (6-MMPR) and S-methyl 6-thioguanosine nucleotides (MTGN) were quantified by a high-performance liquid chromatographic (HPLC) assay as described in Herrlinger et al., Aliment Pharmacol Ther. 19:1269-1276 (2004).
The concentrations of 6-thioguanosine 5′-mono-, di-, and triphosphate (TGMP, TGDP, and TGTP, respectively) were determined separately by the method described in Example 2 above. […] The 5′-phosphates were isolated, extracted, and oxidized as described by Rabel et al., Anal. Biochem. 224:315-322 (1995) with slight modifications. HPLC separation was achieved by reversed phase HPLC on a C18 column with phosphate buffer (20 mM, pH 6.8) and 5 mM tetrabutylammonium hydrogen sulfate/acetonitrile 84:16 (v/v) as the mobile phase. Using fluorescence detection, quantification of 6-thioguanosine nucleotides was performed at concentration ranges of 25 to 400 pmol/100 μL RBC for TGTP, 10 to 100 pmol/100 μL for TGDP, and 10 to 50 pmol/100 μL RBC for TGMP.

[3] = after oral administration and absorption; non-enzymatic attack by sulfhydryl-containing compounds; cited from earlier work

TGMP levels in RBC [2] | Structure (SMILES) | apoptosis in anti-CD2 plus anti-CD28 activated lamina propria lymphocytes [1] | nuclear expression of the p65 subunit of NF-κB (NF-κB p50/p65) | CD28-induced activation of NF-κB p50/p65 (NF-κB p50/p65; nuclear proteins after 3 days) | IκB phosphorylation (IκB) | IκB protein expression levels (IκB) | conversion to 6-MP [3]
– | Sc1ncnc2nc[nH]c12 [6-MP, 6-mercaptopurine] | capable of inducing apoptosis | downregulated | suppressed | suppressed | unchanged | –
only detectable in traces | Cn1cnc([N+](=O)[O-])c1Sc1ncnc2nc[nH]c12 [azathioprine, Azathioprine] | – | – | – | – | – | approximately 90%
